Test results as given in ChEMBL document CHEMBL2390851, “Synthesis and preliminary in vitro biological evaluation of 7α-testosterone-chlorambucil hybrid designed for the treatment of prostate cancer” (Eur J Med Chem, 2013).
Calls of active or inactive are those of the source. The calls are words filed in the database; no cut-off is given here.

Key:
Type in all cases: functional, cell-based
[1] = tested on: PC-3; assay: Cytotoxicity against androgen receptor deficient human PC3 cells after 72 hrs by MTT assay; settings: PC-3, 72 h
[2] = tested on: LNCaP; assay: Cytotoxicity against human LNCAP cells expressing androgen receptor after 72 hrs by MTT assay
[3] = tested on: PC-3; assay: Cytotoxicity against androgen receptor deficient human PC3 cells at 160 uM after 72 hrs by MTT assay

| Compound | IC50 [1] | IC50 [2] | Activity [3] |
| --- | --- | --- | --- |
| O=C(O)CCCc1ccc(N(CCCl)CCCl)cc1 [CHLORAMBUCIL] | 131 µM | 124 µM |  |
| C[C@]12CC[C@H]3[C@@H]([C@H](C/C=C/COC(=O)CCCc4ccc(N(CCCl)CCCl)cc4)CC4=CC(=O)CC[C@@]43C)[C@@H]1CC[C@@H]2O (mixture of isomers) |  | 101 µM | inactive |
